Reference: patent publication US11059801B2, “Methods to induce targeted protein degradation through bifunctional molecules” (Dana-Farber Cancer Institute, Inc., priority 2014, dated 2021)
Read-outs that look alike come from different tables or passages of the source.

Columns and labels:
GST-FKBP12 (WT) = GST-FKBP12 (WT) (Homo sapiens (Human), UniProt P62942); test: FKBP12 Ligand-Displacement AlphaScreen Assay (WT); assay type: binding; conditions: read-out: IC50 (nM) FKBP
Description: (§1) Following a 30 min-incubation, 20 uL detection solution containing Streptavidin Donor Beads and Glutathione Acceptor Beads diluted to 20 ng/uL in assay buffer was added to each well. […] Percent activity values were calculated by setting the average background (no protein wells) to 0% the average DMSO wells to 100% activity. Standard deviations were determined from at least four replicate measurements for compound concentration.

GST-FKBP12 (36V) = GST-FKBP12 (36V) (Homo sapiens (Human), UniProt P62942, F36V); test: FKBP12 Ligand-Displacement AlphaScreen Assay (36V); assay type: binding; conditions: read-out: IC50 (nM) FKBP 36V
Chain of GST-FKBP12 (36V) (P62942 whole entry F37V, the tested form may be a part): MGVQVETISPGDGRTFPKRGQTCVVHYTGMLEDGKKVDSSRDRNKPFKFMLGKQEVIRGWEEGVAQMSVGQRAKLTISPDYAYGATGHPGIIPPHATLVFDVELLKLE
Description: as §1

[1] = target: fusion of FKBP12 to nanoluciferase (Homo sapiens (Human), UniProt P62942+Q96SW2); test: FKBP Dual Luciferase Assay (FKBP12); assay type: cell-based; conditions: 4 hours
Description: (§2) The cells were treated with increasing concentrations of various dFKBPs for 4 hours. The amount of NLuc and FLuc was measured, and the abundance of the FKBP12-HA-NLuc was quantified by calculating the signal ratio of NLuc/FLuc.

[2] = target: fusion of mutant FKBP12 to nanoluciferase (Homo sapiens (Human), UniProt P62942+Q96SW2, F36V); test: FKBP Dual Luciferase Assay (mutant FKBP12, 36V); assay type: cell-based; conditions: 4 hours; for DC50: read-out: DC50 (nM) FKBP 36V;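 as to all read-outs here: cells exposed to rising degrader concentrations, FKBP12 fusion level read as NLuc/FLuc signal ratio, lower ratio means more degradation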
Description: as §2

[3] = target: BRD4 adjoined to nanoluciferase (Nluc) (Homo sapiens (Human), UniProt O60885+Q96SW2); test: BRD4 Dual Luciferase Assay; assay type: cell-based; conditions: for DC50: Dual Luciferase; for DC50 / pDC50 (dual luc): 4 hours
Description: Transduced cells were selected with puromycin and expanded. […] Cells were incubated with compound for 4 hours at 37° C., 5% CO2 and then allowed to cool to room temperature. To each plate was added 25 μL of Fluc buffer (200 mM Tris, 15 mM MgSO4, 100 uM EDTA, 1 mM DTT, 1 mM ATP, 200 uM Coenzyme A, 400 uM D-Luciferin, 0.1% Trition X-100).

CRBN-DDB1/BRD4 = CRBN-DDB1/BRD4 (Homo sapiens (Human), UniProt O60885+Q96SW2); test: CRBN-DDB1/BRD4 Dimerization Assay; assay type: binding;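 also: AlphaScreen proximity signal between GST-tagged BRD4 and CRBN-DDB1 with glutathione donor and nickel chelate acceptor beads, read after 1 hr compound incubation at room temperature, values from Gaussian curve fit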
NGP = test: Cell viability, ATPlite, 72 hours; assay type: cell-based; conditions: NGP cells, Table 4-1
BRD4 [4] = target: T1, BRD4 (Homo sapiens (Human), UniProt O60885); test: BRD4 immunoblot in MV4-11 cells; assay type: cell-based; conditions: MV4-11, 24 h
BRD4 [5] = target: T1, BRD4; test: BRD4 Cell Western (BRD4 levels in 293T cells, LiCOR); assay type: cell-based
Description: On the following day, dBET compounds were added at various concentrations. After being treated with the dBET compounds for 4 hours, cells were fixed with formaledhyde, permeabilized using 0.1% triton, blocked with LiCor blocking buffer, and incubated with the primary antibody (BRD4, 1:1000) overnight. On the following day, cells were washed (5×TBST) and stained using Odysee Cell Stain (1:500). A secondary antibody recoginizing the rabbit BRD4 antibody was added simultaneously (1:800). Images were quantified using LiCOR imager.

[6] = target: IKZF1 adjoined to nanoluciferase (Nluc) (Homo sapiens (Human), UniProt Q13422); test: IKZF1 Dual Luciferase Assay; assay type: cell-based; conditions: 4 hours; read-out: Nluc/Fluc IKZF1 IC50
Description: Transduced cells were selected with puromycin at 2 μg/mL and expanded. […] Cells were incubated with compound for 4 hours at 37° C., 5% CO2 and then allowed to cool to room temperature. To each plate was added 25 μL of Fluc buffer (200 mM Tris, 15 mM MgSO4, 100 uM EDTA, 1 mM DTT, 1 mM ATP, 200 uM Coenzyme A, 400 uM D-Luciferin, 0.1% Trition X-100).

BRD4 [7] = target: T1, BRD4; test: BRD4 AlphaScreen; assay type: binding; conditions: Table 4-1
Description: Cells were grown at 37° C. to an OD of 0.8, induced with 500 μM isopropyl-1-thio-D-galactopyranoside, incubated overnight at 17° C., collected by centrifugation, and stored at −80° C. Cell pellets were sonicated in buffer A (50 mM hepes 7.5+300 mM NaCl+10% glycerol+10 mM Imidazole+3 mM BME) and the resulting lysate was centrifuged at 35,000×g for 40 min. […] The sample was then passed through a desalting column ( 26/10 column) equilibrate with buffer A (without imidazole), and the eluted protein was subjected to a second Ni-NTA step to remove His-tag and TEV. The eluant was concentrated and passed through a Superdex-200 10/300 column in 20 mM hepes7.5+150 mM NaCl+1 mM DTT. Fractions were pooled, concentrated to 14 mg/ml, and frozen at −80° C.
The data were analyzed using PRISM Graphpad v6 to obtain IC50 values.

[8] = Gaussian fit of dimerization signal
[9] = Gaussian fit parameter of dimerization signal

Chain of GST-FKBP12 (WT) (P62942 whole entry): as the sequence (P62942 whole entry F37V, the tested form may be a part) above, with V37F counted along it

Structure (SMILES) | Conc@Emax ([3]; concentration at Emax) [µM] | Dimer Amplitude (CRBN-DDB1/BRD4; [8]) | Dimer Mean (CRBN-DDB1/BRD4; [8]) | Dimer SD (CRBN-DDB1/BRD4; [9]) | also measured
CC[C@H](C(=O)N1CCCC[C@H]1C(=O)O[C@H](CCc1ccc(OC)c(OC)c1)c1cccc(OCC(=O)NCCCCCCNC(=O)COc2cccc3c2C(=O)N(C2CCC(=O)NC2=O)C3=O)c1)c1cc(OC)c(OC)c(OC)c1 (some centres unmarked) [c1FKBP*-8] | – | – | – | – | IC50 (GST-FKBP12 (WT)): > 50000 nM; IC50 (GST-FKBP12 (36V)): 365 nM; Dmax ([1]; read-out: Max Degradation (dual luciferase, %) FKBP): < 5%; DC50 ([2]; FKBP 36V): 0.8 nM; Dmax ([2]; FKBP 36V, read-out: Max Degradation (dual luciferase, %) FKBP 36V): 75%
Cc1sc2c(c1C)C(c1ccc(Cl)cc1)=N[C@@H](CC(=O)NCCOCCOc1cccc3c1C(=O)N(C1CCC(=O)NC1=O)C3=O)c1nnc(C)n1-2 (some centres unmarked) [dBET27] | 0.5 | 11278 | −7.202 | 0.7693 | –
Cc1c(C(=O)NCCCCNC(=O)COc2cccc3c2C(=O)N(C2CCC(=O)NC2=O)C3=O)sc2c1C(c1ccc(Cl)cc1)=N[C@@H](CC(=O)NCCCN1CCN(C)CC1)c1nnc(C)n1-2 (some centres unmarked) [dBET30] | 50 | 30326 | −7.422 | 0.8533 | DC50 [3]: 2100 nM; pDC50 (dual luc) [3]: 5.679
CCC(C)(C)C(=O)C(=O)N1CCCC[C@H]1C(=O)O[C@H](CCc1ccc(OC)c(OC)c1)c1cccc(NC(=O)CCC(=O)NCCCCNC(=O)COc2cccc3c2C(=O)N(C2CCC(=O)NC2=O)C3=O)c1 (some centres unmarked) [dFKBP-1] | – | – | – | – | IC50 (GST-FKBP12 (36V)): 237 nM; DC50 [1]: 11 nM; DC50 ([2]; FKBP 36V): 153 nM
Cc1sc2c(c1C)C(c1ccc(Cl)cc1)=N[C@@H](CC(=O)NCCCCCCNC(=O)c1ccc3c(c1)C(=O)N(C1CCC(=O)NC1=O)C3=O)c1nnc(C)n1-2 (some centres unmarked) [dBET15] | – | – | – | – | Conc@Emax [3]: 5 µM; Dimer Amplitude (CRBN-DDB1/BRD4): 13540; Dimer Mean (CRBN-DDB1/BRD4): −7.111; Dimer SD (CRBN-DDB1/BRD4): 0.6279
Cc1sc2c(c1C)C(c1ccc(Cl)cc1)=N[C@@H](CC(=O)NCCCCCCCCNC(=O)COc1cccc3c1C(=O)N(C1CCC(=O)NC1=O)C3=O)c1nnc(C)n1-2 (some centres unmarked) [dBET6] | – | – | – | – | IC50 (nM) NGP (NGP): 187/6
CC[C@@H]1C(=O)N(C)c2cnc(Nc3ccc(C(=O)NCCCCCCNC(=O)COc4cccc5c4C(=O)N(C4CCC(=O)NC4=O)C5=O)cc3OC)nc2N1C1CCCC1 (some centres unmarked) [dBET7] | 0.5 | 31800 | −6.18 | 0.4549 | –
O=C1CCC(N2C(=O)c3ccccc3C2=O)C(=O)N1 (centres unmarked) [thalidomide] | – | – | – | – | BRD4 degradation by compound alone (immunoblot) (BRD4 [4]): insufficient to induce BRD4 degradation
Cc1sc2c(c1C)C(c1ccc(Cl)cc1)=N[C@@H](CC(=O)NCCCCOc1cccc3c1C(=O)N(C1CCC(=O)NC1=O)C3=O)c1nnc(C)n1-2 (some centres unmarked) [dBET28] | 0.001581 | 1752 | −7.037 | 1.263 | –
CCC(C)(C)C(=O)C(=O)N1CCC[C@H]1C(=O)O[C@H](CCc1ccc(OC)c(OC)c1)c1cccc(OCC(=O)NCCCCNC(=O)COc2cccc3c2C(=O)N(C2CCC(=O)NC2=O)C3=O)c1 (some centres unmarked) [c1FKBP-3] | – | – | – | – | IC50 (GST-FKBP12 (WT)): 1830 nM; IC50 (GST-FKBP12 (36V)): 1200 nM; DC50 [1]: 19700 nM; Max Degradation (dual luciferase, %) FKBP [1]: 22%; Max Degradation (dual luciferase, %) FKBP 36V [2]: 12%
CC[C@@H]1C(=O)N(C)c2cnc(Nc3ccc(C(=O)NCCCOCCOCCOCCCNC(=O)COc4cccc5c4C(=O)N(C4CCC(=O)NC4=O)C5=O)cc3OC)nc2N1C1CCCC1 (some centres unmarked) [dBET10] | 50 | 12824 | −7.349 | 0.5165 | DC50 (BRD4 [5]): 58 nM
Cc1sc2c(c1C)C(c1ccc(Cl)cc1)=N[C@@H](CC(=O)NCCOCCOCCNC(=O)COc1cccc3c1C(=O)N(C1CCC(=O)NC1=O)C3=O)c1nnc(C)n1-2 (some centres unmarked) [dBET24] | 5 | 31348 | −7.489 | 0.6531 | –
Cc1c(C(=O)NCCCCCCCCNC(=O)COc2cccc3c2C(=O)N(C2CCC(=O)NC2=O)C3=O)sc2c1C(c1ccc(Cl)cc1)=N[C@@H](CC(=O)NCCCN1CCN(C)CC1)c1nnc(C)n1-2 (some centres unmarked) [dBET31] | 15.81 | 32323 | −7.374 | 0.6046 | –
Cc1sc2c(c1C)C(c1ccc(Cl)cc1)=N[C@@H](CC(=O)NCCCN1CCN(C(=O)CCCCCNC(=O)COc3cccc4c3C(=O)N(C3CCC(=O)NC3=O)C4=O)CC1)c1nnc(C)n1-2 (some centres unmarked) [dBET18] | 1.581 | 13116 | −8.173 | 0.618 | DC50 (BRD4 [5]): 196 nM; DC50 [3]: 243 nM; pDC50 (dual luc) [3]: 6.614
Cc1sc2c(c1C)C(c1ccc(Cl)cc1)=N[C@@H](CC(=O)NCCCCCCOc1cccc3c1C(=O)N(C1CCC(=O)NC1=O)C3=O)c1nnc(C)n1-2 (some centres unmarked) [dBET29] | 0.05 | 1454 | −7.756 | 0.7393 | –
CCC(C)(C)C(=O)C(=O)N1CCCC[C@H]1C(=O)O[C@H](CCc1ccc(OC)c(OC)c1)c1cccc(OCC(=O)NCCCCNC(=O)COc2cccc3c2C(=O)N(C2CCC(=O)NC2=O)C3=O)c1 (some centres unmarked) [c1FKBP-4] | – | – | – | – | IC50 (GST-FKBP12 (WT)): 408 nM; IC50 (GST-FKBP12 (36V)): 369 nM; Max Degradation (dual luciferase, %) FKBP [1]: 34%; Max Degradation (dual luciferase, %) FKBP 36V [2]: 21%
Cc1sc2c(c1C)C(c1ccc(Cl)cc1)=N[C@@H](CC(=O)NCCNC(=O)COc1cccc3c1C(=O)N(C1CCC(=O)NC1=O)C3=O)c1nnc(C)n1-2 (some centres unmarked) [dBET3] | 0.5 | 16389 | −7.497 | 0.6763 | –
COc1ccc(CC[C@@H](OC(=O)[C@@H]2CCCCN2C(=O)Cc2ccccc2)c2cccc(OCC(=O)NCCCCNC(=O)COc3cccc4c3C(=O)N(C3CCC(=O)NC3=O)C4=O)c2)cc1OC (some centres unmarked) [c1FKBP-5] | – | – | – | – | IC50 (GST-FKBP12 (WT)): > 50000 nM; IC50 (GST-FKBP12 (36V)): 2290 nM; DC50 [1]: 2970 nM; Max Degradation (dual luciferase, %) FKBP [1]: 11%; Max Degradation (dual luciferase, %) FKBP 36V [2]: <5%
CC[C@H](C(=O)N1CCCC[C@H]1C(=O)O[C@H](CCc1ccc(OC)c(OC)c1)c1cccc(OCC(=O)NCCCCNC(=O)COc2cccc3c2C(=O)N(C2CCC(=O)NC2=O)C3=O)c1)c1cc(OC)c(OC)c(OC)c1 (some centres unmarked) [c1FKBP*-6] | – | – | – | – | IC50 (GST-FKBP12 (WT)): > 50000 nM; IC50 (GST-FKBP12 (36V)): 311 nM; DC50 ([2]; FKBP 36V): 1.3 nM
CC(=O)Nc1cccc2c1C(=O)N(C1CCC(=O)NC1=O)C2=O [Compound D-3, N-(2-(2,6-dioxopiperidin-3-yl)-1,3-dioxoisoindolin-4-yl)acetamide] | – | – | – | – | DC50 [6]: 444 nM
CC[C@H](C(=O)N1CCCC[C@H]1C(=O)O[C@H](CCc1ccc(OC)c(OC)c1)c1cccc(OCC(=O)NCCCOCCOCCOCCCNC(=O)COc2cccc3c2C(=O)N(C2CCC(=O)NC2=O)C3=O)c1)c1cc(OC)c(OC)c(OC)c1 (some centres unmarked) [c1FKBP*-7] | – | – | – | – | IC50 (GST-FKBP12 (WT)): > 50000 nM; IC50 (GST-FKBP12 (36V)): 373 nM; DC50 ([2]; FKBP 36V): 0.5 nM
Cc1sc2c(c1C)C(c1ccc(Cl)cc1)=N[C@@H](CC(=O)NCCCCCCNC(=O)COc1cccc3c1C(=O)N(C1CCC(=O)NC1=O)C3=O)c1nnc(C)n1-2 (some centres unmarked) [dBET5] | 1.581 | 18644 | −6.277 | 0.4127 | –
COc1cc(C(=O)NCCCOCCOCCOCCCNC(=O)COc2cccc3c2C(=O)N(C2CCC(=O)NC2=O)C3=O)ccc1Nc1ncc2c(n1)N(C)c1ccccc1C(=O)N2C (centres unmarked) [dBET12] | – | 173.7 | −6.366 | 3.287 | IC50 (BRD4 [7]): 2080 nM
Cc1cnc(Nc2ccc(N3CCN(C(=O)CCCNC(=O)COc4cccc5c4C(=O)N(C4CCC(=O)NC4=O)C5=O)CC3)cc2)nc1Nc1cccc(S(=O)(=O)NC(C)(C)C)c1 (centres unmarked) [dBET20] | – | – | – | – | IC50 (BRD4 [7]): 5700 nM; pDC50 (dual luc) [3]: 6.686
Cc1c(CC#N)sc2c1C(c1ccc(Cl)cc1)=N[C@@H](CC(=O)NCCCCNC(=O)COc1cccc3c1C(=O)N(C1CCC(=O)NC1=O)C3=O)c1nnc(C)n1-2 (some centres unmarked) [dBET19] | 15.81 | 1722 | −7.069 | 1.225 | –
